{"source": "paper PMC13040415", "about": "“Structure and Mechanism of PhdC, a Prenylated‐Flavin Maturase” (Proteins, 2025)", "key": {"[1]": {"biological_target": "T1, PhdC (Mycolicibacterium fortuitum, UniProt A0A0N9XAG5)", "T1 construct": "gene XA26_16660; homodimer, site at dimer interface", "T1 sequence (A0A0N9XAG5 2-155)": "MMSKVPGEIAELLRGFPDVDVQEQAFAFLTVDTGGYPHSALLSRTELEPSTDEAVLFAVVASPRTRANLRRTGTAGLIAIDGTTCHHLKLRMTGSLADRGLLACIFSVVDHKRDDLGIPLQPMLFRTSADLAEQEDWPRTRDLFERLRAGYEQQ", "experiment": "differential scanning fluorimetry (SUPR-DSF); Tm of apo to Tm of FMN-bound", "assay_type": "binding", "details": "100 mM KPi, pH 7.5; ramp 1°C/min"}, "[2]": {"biological_target": "T1, PhdC", "experiment": "isothermal titration calorimetry", "assay_type": "binding"}}, "data": [{"smiles": "Cc1cc2nc3c(=O)[nH]c(=O)nc-3n(C[C@H](O)[C@H](O)[C@H](O)COP(=O)(O)O)c2cc1C", "note": "[FMN]", "values": [{"measurement": "Tm", "setting": "[1]", "result": "63.6 to 66.5", "unit": "°C"}, {"measurement": "Kd", "setting": "[2]", "result": "17.8 ± 0.26", "unit": "µM"}]}]}
